Patent US9051240B2, “Substituted 2-[2-(phenyl) ethylamino] alkaneamide derivatives and their use as sodium and/or calcium channel modulators” (Newron Pharmaceuticals S.P.A., priority 2007, dated 2015)

Experiments:
[1] = tested on: mice; assay: Amphetamine and chlordiazepoxide-induced hyperlocomotion in mice; assay type: in vivo; conditions: 20.0 mg/Kg po
Protocol: In this model, mice are treated with a mixture of d-amphetamine plus an anxiolytic dose of the benzodiazepine, chlordiazepoxide (Rushton R, Steinberg H. Combined effects of chlordiazepoxide and d-amphetamine on activity of rats in an unfamiliar environment. Nature 1966; 211:1312-3; R. Arban, G. Maraia, K. Brackenborough, L. Winyard, A. Wilson, P. Gerrard, C. Large. Evaluation of the effects of lamotrigine, valproate and carbamazepine in a rodent model of mania Behavioural Brain Research, 158: 123-132). The model has been claimed to mimic some aspects of mania in bipolar disorder. Importantly, the hyperactivity induced by the mixture of d-amphetamine and chlordiazepoxide could be prevented by prior administration of the established mood stabilizer, lithium, as well as other mood stabilizers drugs (e.g. magnesium valproate and carbamazepine). […]
Amphetamine (AMP) (2.5 mg/kg) plus chlordiazepoxide hydrochloride (CDZ) (3 mg/kg/ip) were administered to male Albino Swiss mice (25-32 g) in a volume of 10 ml/kg. The locomotor activity was recorded using Opto-M3 System (Columbus Instruments) which is multi-channel activity monitor. […] The locomotor activity (ambulation and total activity count) was evaluated for 30 min. […]
Statistical analysis: the data were evaluated by an analysis of variance (ANOVA), followed, when appropriate, by individual comparison with the control using Dunnett's test.

[2] = tested on: L-type calcium channels; assay: Calcium channel influx assay (fluorescence, AtT20 cell line); assay type: cell-based, mouse; conditions: AtT20 cells, 100 mM KCl depolarization; read-out: Ca++ influx IC50
Protocol: AtT20/D16v-F2 mouse pituitary tumour cell line preferentially expresses L-type calcium channels.
AtT20 cells were grown in DMEM with 10% of FBS, 4 mM glutamine. The cells were seeded at 200,000 cells/well on 96 poly-L-lysine-coated plates and further incubated for 18-24 h, before use.
The Ca^++ Kit Assay (Molecular Devices), which is based on a fluorescent calcium indicator to detect the calcium influx determined by depolarizing conditions, was used for the assay.
Cells were incubated with the calcium dye loading for 30 min at 37° C. Then, ω-conotoxin alone (1 μM) or in presence of nifedipine (as reference standard) or test compound were added for further 15 min.
The fluorescence (excitation: 485-emission: 535 nm wavelength) was measured before and after (30-40 sec) the automated injection of 100 mM KCl depolarizing solution using a Victor plate reader (Perkin Elmer).
The inhibition curves were calculated from 5 concentrations, each in triplicate, and the IC50 determined using linear regression analysis.

For `CCCCOc1cccc(CCNCC(=O)N(C)C)c1.Cl` [2-[2-(3-Butoxyphenyl)-ethylamino]-N,N-dimethylacetamide hydrochloride], the “hyperactivity (ambulation over 30 min) induced by amphetamine alone” value ([1]; amphetamine 2.5 mg/kg i.p.) was “reduced hyperactivity” and the “hyperactivity (ambulation over 30 min) induced by the mixture of amphetamine and chlordiazepoxide” value ([1]; amphetamine 2.5 mg/kg i.p. + chlordiazepoxide 3.0 mg/Kg ip) was “reduced hyperactivity”.

Molecule `C[C@H](NCc1ccc(OCc2ccccc2F)cc1)C(N)=O` [ralfinamide, (S)-(+)-2-[4-(2-fluorobenzyloxy)-benzylamino]-propanamide, reference compound] has an IC50 [2] of 26 µM.
